The target of this data set is HSD17B13. To be noted: ASO, HepaRG.

After the bases stand the sugars from the 5' end (letter, count) and the backbone: PS all phosphorothioate, else s phosphorothioate and o phosphodiester by linkage. Methylation of C is not given here. e = 2'-O-(2-methoxyethyl) (MOE); k = constrained ethyl (cEt); d = 2'-deoxy (DNA); m = 2'-O-methyl

AGACCAAAAAGATGGC (sugars k3 d10 k3, PS): the target mRNA inhibition reads like this: (0.02 µM) 4%; (0.078 µM) 35%; (0.313 µM) 69%; (1 µM) 80%; (1.25 µM) 82%; (5 µM) 72%.
As for AGACCTCTGTGAAAGC (sugars k3 d10 k3, PS), under “1 µM”, the target mRNA inhibition amounted to 50%.
In turn, AGACTAAGGGACCAGG (sugars k3 d10 k3, PS) came in with a target mRNA inhibition (0.02 µM) of 22%; a target mRNA inhibition (0.078 µM) of 24%; a target mRNA inhibition (0.313 µM) of 56%; a target mRNA inhibition (1 µM) of 80%; a target mRNA inhibition (1.25 µM) of 90%; a target mRNA inhibition (5 µM) of 94%.
Consider AGAGAGCGATAGATCT (sugars k3 d10 k3, PS), for which the target mRNA inhibition (1 µM) turned out to be 15%.
As for “AGAGAGTAATCAGTTT (sugars kkdddddddddkekek, PS)”, the target mRNA inhibition (1 µM) worked out at 52%.
The same measure, in the same setting: as for AGAGCCAAACTGCTAC (sugars k3 d10 k3, PS), the figure is 55%.
As to AGAGGATAGTCCATGC (sugars k3 d10 k3, PS), the target mRNA inhibition came out at 12% (0.02 µM); 19% (0.078 µM); 51% (0.313 µM); 74% (1 µM); 73% (1.25 µM); 97% (5 µM).
In turn, “AGAGGATAGTCCATGC (sugars kkdddddddddkekek, PS)” had a target mRNA inhibition (1 µM) of 70%.
For the sequence AGAGGCAAGGATACCT (sugars k3 d10 k3, PS), the target mRNA inhibition reads like this: (0.02 µM) 5%; (0.078 µM) 7%; (0.313 µM) 39%; (1 µM) 78%; (1.25 µM) 68%; (5 µM) 40%.
“AGAGGCTAGGGAAATC (sugars kkdddddddddkekek, PS)” gave a target mRNA inhibition (1 µM) of 59%.
The same measure, in the same setting: to AGAGTCGGTCACCTTT (sugars k3 d10 k3, PS) belongs 71%; to AGAGTTATCTGGTTTG (sugars k3 d10 k3, PS), 56%.
As for “AGAGUTGCACCGTTTT (sugars k3 d1 m1 d8 k3, PS)”, the target mRNA inhibition (1 µM) is 68%.
The same measure, in the same setting: to AGATGGGCAAGGCCAC (sugars k3 d10 k3, PS) belongs 59%.
On to AGATGGTAAGGAGTAG (sugars k3 d10 k3, PS), for which the target mRNA inhibition (1 µM) was 26%.
Turning to AGATTAGTCTTGATGT (sugars k3 d10 k3, PS), the target mRNA inhibition (1 µM) was found to be 63%.
AGATTGGAATGCTACT (sugars k3 d10 k3, PS) registered a target mRNA inhibition (1 µM) of 63%.
On the same count and under the same terms, as for AGATTTACTTCCTTGT (sugars k3 d10 k3, PS), the figure is 41%.
On the same count and under the same terms, as for AGCGAATGTTAAAACT (sugars k3 d10 k3, PS), the figure is 16%; as for AGCTAAGAGACACTTC (sugars k3 d10 k3, PS), 41%.
Same read-out and setting: to AGCTAAGTATACTTTC (sugars k3 d10 k3, PS) belongs 18%.
Where the note is “1 µM”, AGCTACCTCCAAATTC (sugars k3 d10 k3, PS) showed a target mRNA inhibition of 0%.
On the same count and under the same terms, to AGCTATAGGTAGCTAA (sugars k3 d10 k3, PS) belongs 0%; to AGCTGAGTGGATTACA (sugars k3 d10 k3, PS), 29%; to AGCTTAAACTCCAATG (sugars k3 d10 k3, PS), 40%.
The same measure, in the same setting: as for AGCTTGGAAGGAGACT (sugars k3 d10 k3, PS), the figure is 69%; as for “AGCTTTTGTCCACCTT (sugars k3 d9 k3 e1, PS)”, 69%.
For AGCTTTTGTCCACCTT (sugars k3 d10 k3, PS), for the setting “1 µM”, the target mRNA inhibition came out at 57%.
Same read-out and setting: as for AGGCACTAAAGGTTTC (sugars k3 d10 k3, PS), the figure is 61%.
Same read-out and setting: as for AGGCTGTAAGAGTCAG (sugars k3 d10 k3, PS), the figure is 74%.

For the origin of these results see the OligoGym collection.
